Where a name gives a salt, the structure may show the parent alone.
Compared with `Cl.N#Cc1ccc(C2C(=O)N(Cc3ccc(Cl)cc3)Cc3cncn32)cc1` (stereo not shown), `Cl.O=C1C(c2ccc(Br)cc2)n2cncc2CN1Cc1ccc(Cl)cc1` (stereo not shown) is lower in melting point: 245 to 246 °C for the first, 158 to 159 °C for the second.

Compared with `Cl.N#Cc1ccc(C2C(=O)N(Cc3ccc(C(F)(F)F)cc3)Cc3cncn32)cc1` (stereo not shown), `Cl.O=C1C(c2ccc(Br)cc2)n2cncc2CN1Cc1ccc(C(F)(F)F)cc1` (stereo not shown) is lower in melting point: 234 to 236 °C for the first, 113 to 114 °C for the second.

Compared with `Cc1cccc(CN2Cc3cncn3C(c3ccc(C#N)cc3)C2=O)c1.Cl` (stereo not shown), `Cl.N#Cc1ccc(C2C(=O)N(Cc3cccc(C(F)(F)F)c3)Cc3cncn32)cc1` (stereo not shown) is lower in melting point: 275 to 277 °C for the first, 250 to 252 °C for the second.

`Cl.O=C1C(c2ccccc2)n2cncc2CN1Cc1ccccc1` (stereo not shown) and `Cl.O=C1C(c2cccc(Br)c2)n2cncc2CN1Cc1ccccc1` (stereo not shown) fall in the same range of melting point: 249 to 251 °C for the first, 249 to 251 °C for the second.

Compared with `CN1Cc2cncn2C(c2ccccc2)C1=O.Cl` (stereo not shown), `CN1Cc2cncn2C(c2ccc(C#N)cc2)C1=O.Cl` (stereo not shown) is lower in melting point: 252 to 254 °C for the first, 222 to 224 °C for the second.

First: Cl.O=C1C(c2ccc(Br)cc2)n2cncc2CN1CC1CC1 (stereo not shown)
Second: Cl.O=C1C(c2ccc(-c3ccsc3)cc2)n2cncc2CN1CC1CC1 (stereo not shown)
The melting point of the first is higher: 223 to 225 °C for the first, 217 to 219 °C for the second.

First: COc1ccc(N2Cc3cncn3C(c3ccc(Br)cc3)C2=O)cc1.Cl (stereo not shown)
Second: Cl.O=C1C(c2ccc(Br)cc2)n2cncc2CN1Cc1ccc(F)cc1 (stereo not shown)
The melting point of the first is lower: 149 to 150 °C for the first, 205 to 207 °C for the second.

Compared with `Cl.O=C1C(c2ccc(Br)cc2)n2cncc2CN1CCc1ccc(F)cc1` (stereo not shown), `Cl.N#Cc1ccc(C2C(=O)N(CCc3ccc(F)cc3)Cc3cncn32)cc1` (stereo not shown) is higher in melting point: 136 to 138 °C for the first, 160 to 162 °C for the second.

First: O=C(O)C(=O)O.O=C1C(c2cccc(Br)c2)n2cncc2CN1C1CCCCC1 (stereo not shown)
Second: Cl.O=C1C(c2cccc(Br)c2)n2cncc2CN1Cc1cccs1 (stereo not shown)
The melting point of the first is lower: 129 to 131 °C for the first, 233 to 235 °C for the second.

First: COc1ccc(CN2Cc3cncn3C(c3cccc(Br)c3)C2=O)cc1.Cl (stereo not shown)
Second: COc1ccc(CCN2Cc3cncn3C(c3cccc(Br)c3)C2=O)cc1.Cl (stereo not shown)
The melting point of the first is higher: 246 to 248 °C for the first, 202 to 204 °C for the second.

First: Cl.O=C1C(c2cccc(Br)c2)n2cncc2CN1Cc1ccc(F)cc1 (stereo not shown)
Second: Cl.O=C1C(c2cccc(Br)c2)n2cncc2CN1CCc1ccc(F)cc1 (stereo not shown)
The melting point of the first is higher: 246 to 248 °C for the first, 179 to 180 °C for the second.

First: Cl.O=C1C(c2cccc(Br)c2)n2cncc2CN1Cc1ccc(Cl)cc1 (stereo not shown)
Second: Cl.O=C1C(c2cccc(Br)c2)n2cncc2CN1CCc1ccc(Cl)cc1 (stereo not shown)
The melting point of the first is higher: 268 to 270 °C for the first, 225 to 226 °C for the second.

Compared with `Cc1ccc(CN2Cc3cncn3C(c3cccc(Br)c3)C2=O)cc1.Cl` (stereo not shown), `Cc1ccc(CCN2Cc3cncn3C(c3cccc(Br)c3)C2=O)cc1.Cl` (stereo not shown) is lower in melting point: 265 to 267 °C for the first, 197 to 199 °C for the second.

Compared with `Cl.O=C1C(c2cccc(Br)c2)n2cncc2CN1Cc1ccc(C(F)(F)F)cc1` (stereo not shown), `Cl.O=C1C(c2cccc(Br)c2)n2cncc2CN1Cc1cccc(C(F)(F)F)c1` (stereo not shown) is lower in melting point: 269 to 271 °C for the first, 246 to 248 °C for the second.

Compared with `Cl.O=C1C(c2cccc(Br)c2)n2cncc2CN1Cc1cccc(F)c1` (stereo not shown), `Cc1cccc(CN2Cc3cncn3C(c3cccc(Br)c3)C2=O)c1.Cl` (stereo not shown) is higher in melting point: 240 to 243 °C for the first, 248 to 249 °C for the second.

First: Cl.O=C1C(c2cccc(Br)c2)n2cncc2CN1CCc1ccccc1 (stereo not shown)
Second: Cl.N#Cc1cccc(C2C(=O)N(CCc3ccccc3)Cc3cncn32)c1 (stereo not shown)
The melting point of the first is higher: 205 to 207 °C for the first, 203 to 205 °C for the second.

First: Cl.O=C1C(c2cccc(Br)c2)n2cncc2CN1CCc1cccc(Cl)c1 (stereo not shown)
Second: Cl.O=C1C(c2cccc(Br)c2)n2cncc2CN1Cc1ccco1 (stereo not shown)
The melting point of the first is lower: 184 to 186 °C for the first, 215 to 218 °C for the second.

First: Cl.O=C1Cn2cncc2CN1Cc1ccccc1
Second: CC1(c2ccc(C#N)cc2)C(=O)N(Cc2ccccc2)Cc2cncn21.Cl (stereo not shown)
The melting point of the first is lower: 201 to 204 °C for the first, 230 to 232 °C for the second.

`Cc1ccc(CN2Cc3cncn3C(c3cccc(C#N)c3)C2=O)cc1.Cl` (stereo not shown) and `Cl.N#Cc1cccc(C2C(=O)N(Cc3ccc(F)cc3)Cc3cncn32)c1` (stereo not shown) fall in the same range of melting point: 260 to 263 °C for the first, 260 to 263 °C for the second.

First: Cl.N#Cc1cccc(C2C(=O)N(Cc3ccc(Cl)cc3)Cc3cncn32)c1 (stereo not shown)
Second: COc1ccc(CN2Cc3cncn3C(c3cccc(C#N)c3)C2=O)cc1.Cl (stereo not shown)
The melting point of the first is lower: 236 to 238 °C for the first, 246 to 248 °C for the second.

Compared with `Cl.N#Cc1cccc(C2C(=O)N(CCc3ccc(F)cc3)Cc3cncn32)c1` (stereo not shown), `Cl.N#Cc1cccc(C2C(=O)N(CC3CC3)Cc3cncn32)c1` (stereo not shown) is higher in melting point: 221 to 223 °C for the first, 225 to 227 °C for the second.

Compared with `COc1ccc(CN2Cc3cncn3C(c3ccc(-c4ccc(Cl)cc4)cc3)C2=O)cc1.Cl` (stereo not shown), `Cl.O=C1C(c2cccc(-c3ccc(F)cc3)c2)n2cncc2CN1Cc1ccccc1` (stereo not shown) is lower in melting point: 270 to 273 °C for the first, 235 to 237 °C for the second.

Compared with `Cl.O=C1C(c2cccc(-c3ccccc3)c2)n2cncc2CN1Cc1ccccc1` (stereo not shown), `COC(=O)c1ccc(C2C(=O)N(Cc3ccccc3)Cc3cncn32)cc1.Cl` (stereo not shown) is higher in melting point: 232 to 234 °C for the first, 236 to 238 °C for the second.

First: Cl.Cl.N#Cc1ccc(C2C(=O)N(CCCN3CCOCC3)Cc3cncn32)cc1 (stereo not shown)
Second: CCCN1Cc2cncn2C(c2ccc(C#N)cc2)C1=O (stereo not shown) [Example 5, 4-(6-Oxo-7-propyl-5,6,7,8-tetrahydro-imidazo[1,5-a]pyrazin-5-yl)-benzonitrile]
The melting point of the first is higher: 246 to 248 °C for the first, 97 to 98 °C for the second.

First: CC1(c2ccc(Br)cc2)C(=O)N(CC2CC2)Cc2cncn21.Cl (stereo not shown)
Second: CC1(c2cccc(Br)c2)C(=O)N(CC2CC2)Cc2cncn21.Cl (stereo not shown)
The melting point of the first is lower: 228 to 230 °C for the first, 234 to 236 °C for the second.

First: CC1(c2ccc(Br)cc2)C(=O)N(Cc2ccc(F)cc2)Cc2cncn21.Cl (stereo not shown)
Second: Brc1ccc(C2CN(Cc3ccccc3)Cc3cncn32)cc1 (stereo not shown) (as salt: toluene sulfonate) [Example 91, 5-(4-Bromophenyl)-7-benzyl-5,6,7,8-tetrahydro-imidazo[1,5-a]pyrazine p-toluene sulfonate]
The melting point of the first is higher: 235 to 237 °C for the first, 223 to 225 °C for the second.

First: C[C@H](c1ccccc1)N1Cc2cncn2C(c2cccc(Br)c2)C1=O (single isomer, unassigned; (+)) [Example 58]
Second: C[C@@H](c1ccccc1)N1Cc2cncn2C(c2cccc(Br)c2)C1=O (single isomer, unassigned; (-)) [Example 59]
The melting point of the first is lower: 45 to 50 °C for the first, 55 to 70 °C for the second.

Compared with `C[C@H](c1ccccc1)N1Cc2cncn2C(c2ccc(Br)cc2)C1=O` (single isomer, unassigned; (+)) [Example 60], `C[C@@H](c1ccccc1)N1Cc2cncn2C(c2ccc(Br)cc2)C1=O` (single isomer, unassigned; (-)) [Example 61] is higher in melting point: 147 to 148 °C for the first, 167 to 168 °C for the second.

Compared with `C[C@@H](c1ccccc1)N1Cc2cncn2C(c2ccc(C#N)cc2)C1=O` (single isomer, unassigned; (-)) [Example 62], `CC(C)N1Cc2cncn2C(c2ccc(C#N)cc2)C1=O` (stereo not shown) [Example 6, 4-(7-Isopropyl-6-oxo-5,6,7,8-tetrahydro-imidazo[1,5-a]pyrazin-5-yl)-benzonitrile] is lower in melting point: 157 to 158 °C for the first, 122 to 124 °C for the second.

`C=CCN1Cc2cncn2C(c2ccc(C#N)cc2)C1=O` (stereo not shown) [Example 4, 4-(7-Allyl-6-oxo-5,6,7,8-tetrahydro-imidazo[1,5-a]pyrazin-5-yl)-benzonitrile] gave a melting point of 107 to 109 °C.

With `Cl.O=C1C(c2ccc(Br)cc2)n2cncc2CN1Cc1ccccc1` (stereo not shown) the melting point was 250 °C (dec.).
In the case of `CN1Cc2cncn2C(c2cccc(Br)c2)C1=O.Cl` (stereo not shown), the melting point is reported as 265 °C (dec.).
